From patent US20230391729A1, “SUCCINATE SALTS OF N-(3-(4-(3-(DIISOBUTYLAMINO)PROPYL)PIPERAZIN-1-YL)PROPYL)-1H-BENZO[D]IMIDAZOL-2-AMINE, PREPARATION THEREOF AND USE OF THE SAME” (ALZPROTECT, priority 2020, published 2023)

How the values were obtained:
[1] = Variable humidity XRPD (VH-XRPD); assay type: physicochemical; details: exposure to 90% RH for up to 1 hour and 30 minutes
Description: VH-XRPD analysis was carried out on a Philips X'Pert Pro Multipurpose diffractometer equipped with a humidity chamber. The samples were scanned between 4 and 35.99° 20 using Cu K radiation (α1 λ=1.54060 Å; α2=1.54443 Å; β=1.39225 Å; α1: α2 ratio=0.5) running in Bragg-Brentano geometry (step size 0.008 °2θ) using 40 kV/40 mA generator settings. Measurements were performed at 50%, 60%, 70%, 80%, 90%. The sample was held at 90% for an hour and 30 minutes. Measurements were taken at 30-minute intervals.

α-syn aggregation [2] = assay: α-synuclein aggregation in TH(+) neurons after MPP+ injury; assay type: cell-based, rat; details: MPP+ 4 μM 48 h
Description: (§1) Rat dopaminergic neurons were cultured as described by Visanji et al. in FASEB J. 2008, 22(7): 2488-2497 and Callizot et al., in Plos One 2019: https://doi.org/10.1371/journal.pone.0215277. Briefly, pregnant female rat (Wistar) of 15 days of gestation were killed using a deep anesthesia with CO2 chamber and a cervical dislocation. The midbrains obtained from 15-day-old rat embryos (Janvier, France) were dissected under a microscope. The embryonic midbrains were removed and placed in ice-cold medium of Leibovitz (L15) containing 2% of Penicillin-Streptomycin (PS) and 1% of BSA. The ventral portion of the mesencephalic flexure, a region of the developing brain rich in dopaminergic neurons, were used for the cell preparations. The midbrains were dissociated by trypsinization for 20 min at 37° C. (solution at a final concentration of 0.05% trypsin and 0.02% EDTA). The reaction was stopped by the addition of DMEM containing DNAase I grade II (0.5 mg/mL) and 10% of FCS. […] Viable cells were counted in a Neubauer cytometer using the trypan blue exclusion test. […]
(§2) The following read-outs were investigated: • neuron survival: total number of TH neurons (TH staining), • neurite network: total length of neurite network of TH positive neurons (in μm) • α-syn aggregation (area of overlapping between TH and α-syn staining in μm^2) […]

[3] = Solubility assessment in unbuffered water and pH buffers; assay type: physicochemical; details: solution in unbuffered water
Description: 100 μL of the appropriate buffer was added to form a slurry.

α-syn aggregation [4] = assay: α-synuclein aggregation in TH(+) neurons after rotenone injury; assay type: cell-based, rat; details: rotenone 10 nM 24 h
Description: as §1, §2

## N-(3-(4-(3-(diisobutylamino)propyl)piperazin-1-yl)propyl)-1H-benzo[d]imidazol-2-amine sesqui-succinate salt [sesqui-succinate salt Form 1]
[1]
  VH-XRPD crystalline form: no change to crystallinity or form
α-syn aggregation [2]; coincubation, 50 or 100 nM
  α-syn aggregation: significantly reduced
α-syn aggregation [2]; pre-incubation, all tested concentrations
  α-syn aggregation: significantly reduced
[3]
  pH measurement: 5.28
α-syn aggregation [4]; 100 nM co-administered
  α-syn aggregation: prevented
α-syn aggregation [4]; pre-incubated or applied directly with rotenone, 10 to 100 nM
  α-syn aggregation: significantly reduced
